According to PMC12817916, “A small-molecule HSP90 inhibitor, NVP-HSP990, alleviates rotavirus infection” (Journal of Virology, 2025):
Read-outs that look alike come from different tables or passages of the source.

Key:
[1] = Cytotoxicity assay (CCK-8); format: cell-based, Rhesus monkey; details: rhesus monkey
Protocol: (§1) To evaluate the cytotoxicity of different HSP90 inhibitors in vitro, 10,000 MA104 cells, 30,000 Caco-2 cells, and 80,000 HT-29 cells in 100 µL complete DMEM medium were seeded in 96-well plates and cultured at 37°C and 5% CO2 for 24 h to reach about 100% confluence, and a cell-free control was also set. After removing the initial medium, 100 µL of complete DMEM medium containing the indicated concentrations of drugs was added to each well, and the plates were incubated at 37°C and 5% CO2. Twenty-four hours later, the drug-containing medium was replaced with 100 µL fresh complete DMEM medium plus 10 µL 5 mM CCK-8 reagent (Beyotime, China), and OD450 absorbance of each well was detected 3 h later using a microplate reader (Gene Company Limited, China). Relative cell viability rate = OD450 (drug-treated cells − cell-free control) / OD450 (0 µM drug-treated cells − cell-free control).
(§2) The 50% cytotoxic concentration (CC50) values were determined by nonlinear regression (curve fit) analysis in GraphPad Prism 9.0 (GraphPad Software). Dose-response data (drug concentrations as X-axis and normalized cell viability percentages as Y-axis) were fitted to a Dose-response Inhibition model ("[Inhibitor] vs. normalized response-Variable slope"). The curve was constrained to a bottom limit of 0% viability. The CC50 value was automatically calculated as the X-intercept at Y=50%. Model adequacy was validated using goodness-of-fit metrics (R²≥0.95), 95% confidence intervals, and residual distribution analysis. Final CC50 values were derived from three independent biological replicates and reported as mean ± SEM.

MA104 cells = test: Cytotoxicity assay (CCK-8); format: cell-based, Rhesus monkey; details: 24 h
Protocol: as §1, §2

RV SA11 (G3P[2]) strain = test: In vitro assay of RV replication inhibition (PFA); format: cell-based, Rotavirus; details: Rotavirus
Protocol: (§3) For analysis of effects of different […] on RV replication in vitro, 10,000 MA104 cells, 30,000 Caco-2 cells, and 80,000 HT-29 cells in 100 µL complete DMEM medium were seeded in 96-well plates and cultured at 37°C and 5% CO2 for 24 h. Then the cells were infected with RV Wa or SA11 strains (MOI = 1 (PFU/cell)) for 1 h. After removing the viruses and washing cells two times with DMEM, 100 µL DMEM containing the indicated concentrations of drugs was added to each well, and the plates were incubated at 37°C and 5% CO2. At 24 h p.i., the infected cells and culture medium were collected, frozen/thawed twice, and subjected to centrifugation at 1,000 × g for 3 min at room temperature. Then, the supernatant was subjected to analysis of viral load by PFA. […] Dose-response data (drug concentrations as x-axis and normalized inhibition percentages as y-axis) were fitted to a dose-response inhibition model ([Inhibitor] vs normalized response – Variable slope). […] Model adequacy was validated using goodness-of-fit metrics (R^2 ≥ 0.95), 95% confidence intervals, and residual distribution analysis.
(§4) Wa/SA11 strains were titrated by PFA, which was carried out as described (3) with some modification. Briefly, confluent monolayers of MA104 cells in 24-well tissue culture plates were infected with 100 µL supernatants containing infectious RV particles which were serially diluted (10^1, 10^2, 10^3, and 10^4) with DMEM containing 1 µg/mL trypsin and penicillin (10,000 U/mL)-streptomycin (5 µg/mL) (DMEM-T) for 1 h at 37°C. Then 400 µL agarose overlay (0.8% agarose in 1×DMEM-T) was added and the plates were incubated at 37℃ and 5% CO2 for 5 days. The cells in each well were fixed by 1 mL 4% paraformaldehyde (Sangon Biotech, China) overnight (> 12 h) at room temperature. Then, the paraformaldehyde and agarose were removed and the monolayers were stained with 0.5 ml of a 1% (v/v) crystal violet (Sangon Biotech, China) diluted in distilled water for 10 min at room temperature. Then, the plates were drained and dried, and the plaques were enumerated. As the EDIM strain is not able to grow in cell culture, it was titrated by qPCR analysis as described (4) with EDIM VP6 gene as the target.

RV Wa (G1P[8]) strain = test: In vitro assay of RV replication inhibition (PFA); format: cell-based, Rotavirus; details: Rotavirus
Protocol: as §3, §4

[2] = Cytotoxicity assay (CCK-8); format: cell-based, Human; details: human
Protocol: as §1, §2

Caco-2 cells = test: Cytotoxicity assay (CCK-8); format: cell-based, Human; details: 24 h
Protocol: as §1, §2

HT-29 cells = test: Cytotoxicity assay (CCK-8); format: cell-based, Human; details: 24 h
Protocol: as §1, §2

[3] = Caco-2, 24 h, read-out: IC50 (Fig 1B plot)
[4] = HT-29, 24 h, read-out: IC50 (Fig 1B plot)
[5] = MA104, 24 h, read-out: IC50 (Fig 1B plot)

For `C=CCNC1=C2C[C@@H](C)C[C@H](OC)[C@H](O)[C@@H](C)/C=C(\C)[C@H](OC(N)=O)[C@@H](OC)/C=C\C=C(/C)C(=O)NC(=CC1=O)C2=O` [17-AAG, 17-allylamino-17-demethoxygeldanamycin], the CC50 at 24 h ([1]; MA104 cells, 24 h, CCK-8, read-out: CC50) was < 40 µM, the CC50 (MA104 cells; MA104 cells, CCK-8, read-out: CC50) was 23.3 ± 6.72 µM and the IC50 (RV SA11 (G3P[2]) strain; Caco-2, 24 h) was 0.116 ± 0.0333 µM. It also gave an IC50 (RV SA11 (G3P[2]) strain; [3]) of 0.113 µM, an IC50 (RV SA11 (G3P[2]) strain; HT-29, 24 h) of 0.054 ± 0.00714 µM and an IC50 (RV SA11 (G3P[2]) strain; [4]) of 0.0539 µM. The IC50 (RV SA11 (G3P[2]) strain; MA104, 24 h) was 0.00352 ± 0.0006 µM, the IC50 (RV SA11 (G3P[2]) strain; [5]) was 0.00351 µM and the IC50 (RV Wa (G1P[8]) strain; Caco-2, 24 h) was 0.162 ± 0.0343 µM. It also gave an IC50 (RV Wa (G1P[8]) strain; [3]) of 0.172 µM, an IC50 (RV Wa (G1P[8]) strain; HT-29, 24 h) of 0.0264 ± 0.0205 µM and an IC50 (RV Wa (G1P[8]) strain; [4]) of 0.0219 µM. For the same compound, the IC50 (RV Wa (G1P[8]) strain; MA104, 24 h) was 0.00681 ± 0.00218 µM, the IC50 (RV Wa (G1P[8]) strain; [5]) was 0.00658 µM and the CC50 at 24 h ([2]; Caco-2 cells, CCK-8) was < 40 µM. For the same compound, the CC50 at 24 h ([2]; HT-29 cells, 24 h, CCK-8, read-out: CC50) was < 40 µM, the CC50 (Caco-2 cells; Caco-2 cells, CCK-8, read-out: CC50) was 28.6 ± 9.73 µM and the CC50 (HT-29 cells; HT-29 cells, CCK-8, read-out: CC50) was 20.7 ± 6.03 µM.

With `COC1=C2C[C@@H](C)C[C@H](OC)[C@H](O)[C@@H](C)/C=C(\C)[C@H](OC(N)=O)[C@@H](OC)/C=C\C=C(/C)C(=O)NC(=CC1=O)C2=O` [GA, geldanamycin] the CC50 at 24 h ([1]; CC50) was < 40 µM, the CC50 (MA104 cells; rhesus monkey) was 26.6 ± 5.55 µM and the IC50 (RV SA11 (G3P[2]) strain; SA11 strain in Caco-2 cells, MOI = 1, 24 h p.i., PFA, read-out: IC50) was 0.0838 ± 0.0206 µM. For the same compound, the IC50 (RV SA11 (G3P[2]) strain; SA11 strain in Caco-2 cells, representative experiment, 24 h, PFA, read-out: IC50 (Fig 1B plot)) was 0.0837 µM, the IC50 (RV SA11 (G3P[2]) strain; SA11 strain in HT-29 cells, MOI = 1, 24 h p.i., PFA, read-out: IC50) was 0.0482 ± 0.0348 µM and the IC50 (RV SA11 (G3P[2]) strain; SA11 strain in HT-29 cells, representative experiment, 24 h, PFA, read-out: IC50 (Fig 1B plot)) was 0.0416 µM. The IC50 (RV SA11 (G3P[2]) strain; SA11 strain in MA104 cells, MOI = 1, 24 h p.i., PFA, read-out: IC50) was 0.00301 ± 0.00077 µM, the IC50 (RV SA11 (G3P[2]) strain; SA11 strain in MA104 cells, representative experiment, 24 h, PFA, read-out: IC50 (Fig 1B plot)) was 0.00294 µM and the IC50 (RV Wa (G1P[8]) strain; Wa strain in Caco-2 cells, MOI = 1, 24 h p.i., PFA, read-out: IC50) was 0.0917 ± 0.00695 µM. For the same compound, the IC50 (RV Wa (G1P[8]) strain; Wa strain in Caco-2 cells, representative experiment, 24 h, PFA, read-out: IC50 (Fig 1B plot)) was 0.092 µM, the IC50 (RV Wa (G1P[8]) strain; Wa strain in HT-29 cells, MOI = 1, 24 h p.i., PFA, read-out: IC50) was 0.0165 ± 0.00441 µM and the IC50 (RV Wa (G1P[8]) strain; Wa strain in HT-29 cells, representative experiment, 24 h, PFA, read-out: IC50 (Fig 1B plot)) was 0.0161 µM. The IC50 (RV Wa (G1P[8]) strain; Wa strain in MA104 cells, MOI = 1, 24 h p.i., PFA, read-out: IC50) was 0.0105 ± 0.00357 µM, the IC50 (RV Wa (G1P[8]) strain; Wa strain in MA104 cells, representative experiment, 24 h, PFA, read-out: IC50 (Fig 1B plot)) was 0.0101 µM and the CC50 at 24 h ([2]; CC50) was < 40 µM. The CC50 (Caco-2 cells; human) was 20 ± 3.07 µM and the CC50 (HT-29 cells; human) was 29.2 ± 5.06 µM.
